The text below walks through data of article PMC2967600 (Peptides, 2010).

Ends that are not written are not given here.

The target in test [1] is hMC5R (Homo sapiens, UniProt P33032). The conditions noted are these: Bednarek et al.; cited from earlier work.
In test [2] the test system is rat MC5R. The conditions noted are these: CHO cells; cited from earlier work.
The target in test [3] is mMC3R (Mus musculus, UniProt P33033). Put plainly: cAMP based functional bioassay. The class given is cell-based.
mMC3R, sequence (P33033 whole entry): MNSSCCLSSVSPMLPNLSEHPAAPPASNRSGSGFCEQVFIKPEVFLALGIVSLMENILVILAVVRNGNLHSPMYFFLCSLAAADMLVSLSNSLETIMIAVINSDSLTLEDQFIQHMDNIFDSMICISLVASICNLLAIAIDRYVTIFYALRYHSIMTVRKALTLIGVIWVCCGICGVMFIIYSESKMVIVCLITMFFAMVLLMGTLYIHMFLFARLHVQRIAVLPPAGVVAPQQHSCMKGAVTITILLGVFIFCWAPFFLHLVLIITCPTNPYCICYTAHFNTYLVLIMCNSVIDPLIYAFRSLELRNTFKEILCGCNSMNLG
Test [4] concerns melanocortin receptors. As to conditions: cited from earlier work.
Test [5] has as its target mMC5R (Mus musculus, UniProt P41149). Put plainly: cAMP based functional bioassay. The class given is cell-based. The conditions noted are these: mMC5R EC50, agonist; mean ± SEM; >100000 = no activity at up to 100μM.

mMC5R, sequence (P41149 whole entry): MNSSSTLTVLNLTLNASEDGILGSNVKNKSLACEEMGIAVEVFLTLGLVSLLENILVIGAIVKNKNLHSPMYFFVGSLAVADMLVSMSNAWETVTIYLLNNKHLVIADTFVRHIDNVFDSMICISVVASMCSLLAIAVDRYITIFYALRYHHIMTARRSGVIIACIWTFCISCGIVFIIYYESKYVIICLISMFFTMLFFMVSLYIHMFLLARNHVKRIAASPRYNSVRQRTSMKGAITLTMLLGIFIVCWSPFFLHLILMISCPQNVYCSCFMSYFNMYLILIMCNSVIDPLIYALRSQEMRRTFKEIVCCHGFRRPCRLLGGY
hMC5R, sequence (P33032 whole entry): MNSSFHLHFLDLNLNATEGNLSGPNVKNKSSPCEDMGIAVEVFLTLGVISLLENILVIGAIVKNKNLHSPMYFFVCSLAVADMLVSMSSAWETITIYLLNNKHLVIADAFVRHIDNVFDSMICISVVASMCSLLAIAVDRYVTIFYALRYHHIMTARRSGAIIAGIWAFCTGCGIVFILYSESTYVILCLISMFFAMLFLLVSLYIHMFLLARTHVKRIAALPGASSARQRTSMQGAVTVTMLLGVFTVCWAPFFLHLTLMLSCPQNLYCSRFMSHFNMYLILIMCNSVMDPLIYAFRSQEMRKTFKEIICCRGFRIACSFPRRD

Turning to HS024, the “functional activity at the hMC5R” value in test [1] is “full hMC5R agonist”. Besides, in test [2], the “functional activity at the rat MC5R” value is listed as “full agonist”.

Turning to YVMGHFRWDR [Peptide 6], in test [3] (from agonist EC50 values), the “selectivity for the mMC3R versus the mMC4R” value is reported as 18 fold. For the substance Ac-His-Phe-Arg-Trp-NH2, the “stimulation of melanocortin receptors” value in test [4] was “able to fully stimulate”. Usually EC50 stands for the midpoint of the concentration-response curve. In the case of MGHFRWDRF [Peptide 27], the EC50 in test [3] (mMC3R EC50, agonist, mean ± SEM, >100000 = no activity at up to 100μM) was found to be 100 nM; in test [5] it was 365 nM.
